Patent US20040006103A1, “Use of chloroquine, hydroxychloroquine and 4 amino-quinolinic derivatives to obtain a drug for the anti retroviral therapy, active towards HIV sensitive strains and towards HIV strains which are resistant to both nucleosidic and non-nucleosidic reverse transcriptase inhibitors and to proteases …” (VALPHARMA S.A., priority 2002, published 2004)
Like-named read-outs stand apart in the source and are kept apart here.

Key:
[1] = test system: HIV-1 clinical isolated, characterised by mutations in the protease gene inducing geno-phenotypic resistance to IDV; assay: p24 production susceptibility test (ACTG protocol), Table 9; format: cell-based; settings: for EC50: Human immunodeficiency virus 1, PBMC; for S.I. CQ: I.C.50/E.C.50; for Fen. CQ (fold): ratio to HIV-IIIB
From the text: (§1) For the phenotype of the nucleosidic, non-nucleosidic and proteases inhibitors was utilised a method which consider the use of human PBMC and the protocol standardised by the AIDS Clinical Trials Group, after verifying the genotype by sequence analysis.
(§2) In order to assay in vitro the susceptibility to chloroquine and hydroxychloroquine of the viral strains, it was used the protocol of the ACTG which is characterised by the measure, of the production of antigen p24 in strongly infected cells.
(§3) The susceptibility of the viral strains to chemotherapics was determined in cell cultures, prepared in 96 wells microplates, using, for the infection, 0.1 MOI.
(§4) The supernatant of the infected cultures (either in absence or in presence of different concentrations of chemotherapic) were tested for the production of p24 after 7 days, using an ELISA test which is commercially available.
(§5) The concentrations of chloroquine and hydroxychloroquine tested ranged from 0.5 to 15 uM. At the same time non-infected cells were incubated with concentrations of chloroquine and hydroxychloroquine ranging from 0 to 50 uM to evaluate the toxicity of the compound.
(§6) After 4 day from the infection, half the cellular medium was replaced with a medium containing the corresponding dilution of chloroquine and hydroxychloroquine. The percentage of inhibition of the HIV replication, induced by chloroquine and hydroxychloroquine, was determined, after 7 day from the infection, comparing the levels of p24 of this cultures and that of the control, infected and not treated with chloroquine and hydroxychloroquine.
(§7) Therefore, the E.C.50 of chloroquine and hydroxychloroquine expresses the concentration of chemotherapic that inhibits the 50% of production of p24 and the values were calculated using linear and non linear regression analysis (the significativity for the non linear regression was R^2>0.95).
(§8) In the same experimental conditions and in the same day, but with similar concentrations of chloroquine and hydroxychloroquine, it was evaluated the vitality of the infect cell cultures, and this was expressed as I.C.50.
(§9) I.C.50 (Inhibitory Concentration) indicates the concentration of the chemotherapic agent inhibiting the vitality of the cell cultures at a rate of 50%, when there is not infection.

[2] = test system: viruses resistant to both reverse transcriptase and protease inhibitors; assay: p24 production susceptibility test, summary for resistant viruses; format: cell-based, HIV-1; settings: Human immunodeficiency virus 1, range
Protocol: as §2, §3
The supernatant of the infected cultures (either in absence or in presence of different concentrations of chemotherapic) were tested for the production of p24 after 7 days, using an ELISA test which is commercially available. […]
as §6, §7

[3] = test system: HIV-1 clinical isolated, characterised by mutations in the RT gene inducing geno-phenotypic resistance to 3TC; assay: p24 production susceptibility test (ACTG protocol), Table 3; format: cell-based; settings: for EC50: Human immunodeficiency virus 1, PBMC, read-out: E.C.50 CQ; for S.I. CQ / Fen. CQ (fold): PBMC; for S.I. CQ: I.C.50/E.C.50; for Fen. CQ (fold): ratio to HIV-IIIB
From the text: as §1, §2, §3, §4
At the same time non-infected cells were incubated with concentrations of chloroquine and hydroxychloroquine ranging from 0 to 50 uM to evaluate the toxicity of the compound.
as §6, §7, §8, §9

[4] = test system: HIV-1 strains cultivated in PBMC and isolated from patient naive to the treatment; assay: p24 production susceptibility test (ACTG protocol), Table 11; format: cell-based; settings: for EC50: Human immunodeficiency virus 1, PBMC; for S.I. CQ: I.C.50/E.C.50
Protocol: as §2, §3, §4, §5, §6, §7, §8, §9

[5] = test system: HIV-1 clinical isolated, characterised by mutations in the RT gene inducing geno-phenotypic resistance to ABC; assay: p24 production susceptibility test (ACTG protocol), Table 5; format: cell-based; settings: for EC50: Human immunodeficiency virus 1, PBMC, read-out: E.C.50 CQ; for S.I. CQ / Fen. CQ (fold): PBMC; for S.I. CQ: I.C.50/E.C.50; for Fen. CQ (fold): ratio to HIV-IIIB
From the text: as §1, §2, §3, §4, §5, §6, §7, §8, §9

[6] = test system: HIV-1 strains geno-phenotypically resistant to NVP; assay: p24 production susceptibility test, Table 6, MT-2 cells; format: cell-based; settings: for EC50: Human immunodeficiency virus 1, MT2, MT-2, read-out: E.C.50 CQ; for S.I. CQ / Fen. CQ (fold): MT-2; for S.I. CQ: I.C.50/E.C.50; for Fen. CQ (fold): ratio to HIV-IIIB
From the text: as §1, §2, §3, §4, §5, §6, §7, §8, §9

[7] = test system: HIV-1 clinical isolated, characterised by mutations in the RT gene inducing geno-phenotypic resistance to d4T; assay: p24 production susceptibility test (ACTG protocol), Table 4; format: cell-based; settings: for EC50: Human immunodeficiency virus 1, PBMC, read-out: E.C.50 CQ; for S.I. CQ / Fen. CQ (fold): PBMC; for S.I. CQ: I.C.50/E.C.50; for Fen. CQ (fold): ratio to HIV-IIIB
From the text: as §1, §2, §3, §4, §5, §6, §7, §8, §9

[8] = PBMC, Gen. K20R E35D M36I I54V V82T
[9] = Gen. M4IL E44D D67N M184V R211K T215Y
[10] = Gen. M41L D67N V118I M184V T215Y
[11] = Gen. K65R S68G F77L Y115F Q151M M184V
[12] = Gen. M41L D67N M184V L210W T215Y
[13] = Gen. K65R F77L Y115F Q151M M184V

Structure (SMILES): CCN(CC)CCCC(C)Nc1ccnc2cc(Cl)ccc12 (stereo not drawn) [CQ, chloroquine]
- EC50 ([1]; PBMC, Gen. G48V V82A, read-out: E.C.50 CQ): 2.5 µM
- EC50 ([1]; PBMC, Gen. I84V L90M, read-out: E.C.50 CQ): 2.2 µM
- EC50 ([1]; PBMC, Gen. K20R E35D M36I I54V V82T, read-out: E.C.50 CQ): 1.8 µM
- EC50 ([1]; PBMC, Gen. V82F L90M, read-out: E.C.50 CQ): 2.8 µM
- EC50 ([1]; read-out: E.C.50 CQ (uM), PBMC, Gen. L10R M46I L63P V82T): 1.5 µM
- S.I. CQ ([1]; PBMC, Gen. G48V V82A): 3.6
- Fen. CQ (fold) ([1]; PBMC, Gen. G48V V82A): 1.3X fold
- S.I. CQ ([1]; PBMC, Gen. I84V L90M): 4
- Fen. CQ (fold) ([1]; PBMC, Gen. I84V L90M): 1.2X fold
- S.I. CQ [1, 8]: 5.5
- Fen. CQ (fold) [1, 8]: 1X fold
- S.I. CQ ([1]; PBMC, Gen. L10R M46I L63P V82T): 5.5
- Fen. CQ (fold) ([1]; PBMC, Gen. L10R M46I L63P V82T): 1X fold
- S.I. CQ ([1]; PBMC, Gen. V82F L90M): 3.4
- Fen. CQ (fold) ([1]; PBMC, Gen. V82F L90M): 1.5X fold
- EC50 [2]: 1500 to 3500 nM
- EC50 [3, 9]: 3000 nM
- EC50 [3, 10]: 3500 nM
- EC50 ([3]; Gen. M184I): 2500 nM
- EC50 ([3]; Gen. M184V): 3200 nM
- S.I. CQ [3, 9]: 3
- Fen. CQ (fold) [3, 9]: 2.1X fold
- S.I. CQ [3, 10]: 3.4
- Fen. CQ (fold) [3, 10]: 1.9X fold
- S.I. CQ ([3]; Gen. M184I): 3.6
- Fen. CQ (fold) ([3]; Gen. M184I): 1.1X fold
- S.I. CQ ([3]; Gen. M184V): 2.5
- Fen. CQ (fold) ([3]; Gen. M184V): 1.4X fold
- EC50 ([4]; HIV-1 virus sensitive to the anti-retroviral treatment, range over each experiment, read-out: E.C.50): 1500 to 3500 nM
- EC50 ([4]; PBMC, Virus N°1, read-out: E.C.50 CQ): 1500 nM
- EC50 ([4]; PBMC, Virus N°2, read-out: E.C.50 CQ): 2200 nM
- EC50 ([4]; PBMC, Virus N°3, read-out: E.C.50 CQ): 1800 nM
- EC50 ([4]; PBMC, Virus N°4, read-out: E.C.50 CQ): 2500 nM
- EC50 ([4]; PBMC, Virus N°5, read-out: E.C.50 CQ): 2000 nM
- S.I. CQ ([4]; PBMC, Virus N°1): 5
- S.I. CQ ([4]; PBMC, Virus N°2): 4
- S.I. CQ ([4]; PBMC, Virus N°3): 5
- S.I. CQ ([4]; PBMC, Virus N°4): 3.5
- S.I. CQ ([4]; PBMC, Virus N°5): 4
- EC50 ([5]; Gen. K65R L74V M184V): 1800 nM
- EC50 [5, 11]: 2500 nM
- EC50 ([5]; Gen. L74V M184F): 1800 nM
- EC50 ([5]; Gen. L74V Y115F M184V): 2200 nM
- EC50 [5, 12]: 2200 nM
- S.I. CQ ([5]; Gen. K65R L74V M184V): 5.5
- Fen. CQ (fold) ([5]; Gen. K65R L74V M184V): 1.2X fold
- S.I. CQ [5, 11]: 3.6
- Fen. CQ (fold) [5, 11]: 1.6X fold
- S.I. CQ ([5]; Gen. L74V M184F): 5.5
- Fen. CQ (fold) ([5]; Gen. L74V M184F): 1.2X fold
- S.I. CQ ([5]; Gen. L74V Y115F M184V): 4
- Fen. CQ (fold) ([5]; Gen. L74V Y115F M184V): 1.2X fold
- S.I. CQ [5, 12]: 4
- Fen. CQ (fold) [5, 12]: 1.4X fold
- EC50 ([6]; Gen. G190E): 3500 nM
- EC50 ([6]; Gen. K103N): 3200 nM
- EC50 ([6]; Gen. V106A): 2800 nM
- EC50 ([6]; Gen. Y181C): 3800 nM
- S.I. CQ ([6]; Gen. G190E): 6
- Fen. CQ (fold) ([6]; Gen. G190E): 1.9X fold
- S.I. CQ ([6]; Gen. K103N): 6.2
- Fen. CQ (fold) ([6]; Gen. K103N): 1.7X fold
- S.I. CQ ([6]; Gen. V106A): 7.8
- Fen. CQ (fold) ([6]; Gen. V106A): 1.5X fold
- S.I. CQ ([6]; Gen. Y181C): 6
- Fen. CQ (fold) ([6]; Gen. Y181C): 2.1X fold
- EC50 [7, 13]: 3500 nM
- EC50 ([7]; Gen. K65R F116Y Q151M): 3500 nM
- EC50 ([7]; Gen. M41I T69SSS T215Y): 2800 nM
- EC50 ([7]; Gen. T69SSS T215Y): 2800 nM
- EC50 ([7]; Gen. V75I F77L F116Y Q151M): 2200 nM
- S.I. CQ [7, 13]: 3.4
- Fen. CQ (fold) [7, 13]: 2.3X fold
- S.I. CQ ([7]; Gen. K65R F116Y Q151M): 3.4
- Fen. CQ (fold) ([7]; Gen. K65R F116Y Q151M): 2.3X fold
- S.I. CQ ([7]; Gen. M41I T69SSS T215Y): 3.4
- Fen. CQ (fold) ([7]; Gen. M41I T69SSS T215Y): 1.8X fold
- S.I. CQ ([7]; Gen. T69SSS T215Y): 3.4
- Fen. CQ (fold) ([7]; Gen. T69SSS T215Y): 1.8X fold
- S.I. CQ ([7]; Gen. V75I F77L F116Y Q151M): 3
- Fen. CQ (fold) ([7]; Gen. V75I F77L F116Y Q151M): 1.5X fold
